Reference: patent publication US9072751B2, “Na/K-ATPase ligand” (priority 2006, dated 2015)
Read-outs that look alike come from different tables or passages of the source.

Tests used:
[1] = tested on: left ventricular cardiac tissue; assay: Cardiac tissue fibrosis, immunohistochemistry and Western blot after MBG infusion; assay type: in vivo, Sprague-Dawley rats
Procedure: Briefly, Sprague-Dawley rats weighing.apprxeq.250 g at the time of surgery were subjected to either sham surgery with no MBG infusion (Sham), sham surgery with placement of a minipump infusing MBG at 10 μg/kg per day (MBG), PNx, and PNx after immunization against MBG (PNx-IM). MBG of extremely high purity (>99%) was isolated from the venom of Bufa marinas by Kennedy et al. In addition to these maneuvers, a group of PNx animals was subjected to adrenalectomy as well (PNx-ADx).
(determined after extraction on a C-18 column using DELPHIA as described previously), aldosterone (determined with ELISA kit 10004377, Cayman Chemical) and cardiac immunohistochemistry (vida infra) were assessed 4 weeks after surgery.
(§1) Western blot analysis was performed on protein isolated from tissue homogenates, cell culture whole cell lysates, or nuclear extracts as described previously.
Immunization against MBG attenuated these increases. Western blot analysis confirmed that PNx and MBG had 2 to 2.5 times the expression of procollagin-1 and a smooth muscle actin seen with sham-operated controls, whereas PNx-IM expression of both procollagen-1 and a smooth muscle actin was substantially less than that seen with PNx.
Other data includes a representative pressure-volume loops obtained during vena cava occlusion from rats subjected to sham surgery (Sham), PNx, MBG infusion (MBG), and PNx after immunization against an MBG-albumin conjugate (PNx-IM). Regression lines fit to the end systolic pressure volume relationship (ESPVR, dotted line) and the end diastolic pressure volume relationship (EDPVR, solid line). B, ventricular cross-sectional areas determined from trichrome stains of tissue obtained from Sham, PNx, MBG, and PNx-IM animals (each group: N=8 animals, .apprxeq.100 measurements averaged to determine mean for each animal; data shown as the group mean.+−.SEM using N−8). Representative immunohistochemistry images of cardiac tissues stained for (c) collagen-1 and (d) a smooth muscle actin (aSMA). Counterstain for both c and d was hematoxlyn. Western blot and corresponding densitometric analysis for (e) procollagen-1 and (f) aSMA. Note that both collagen-1 and aSMA staining are much more intense in the PNx and MBG groups compared with Sham, whereas the PNx-IM staining is similar to Sham. Similarly, procollagen and aSMA expression are substantially higher in PNx and MBG animals compared with Sham, whereas immunization against MBG (PNx-IM) attenuated the changes seen with PNx. Data for e and f are derived from N=6 experiments in each group and shown as mean.+−.SEM. Sham refers to hearts isolated from control animals, PNx refers to PNx, MBG refers to MBG supplemented, and PNx-IM refers to animals immunized against MGB before PNx surgery. *P<0.05, **P<0.01 vs Sham, #P<0.01 vs PNx.

[2] = tested on: isolated cardiac fibroblasts; assay type: cell-based, rat; conditions: 24 hours
Procedure: (§2) Preparation of adult rat cardiac fibroblasts was performed as described previously by Brilla et al. with modifications.
as §1
(§3) Representative Western blot for procollagen and quantitative densitometric data obtained in response to different doses of (a) MBG (all N=10), (b) MBG 10 nM contrasted with different doses of ouabain (0.1 to 100 nM) and digoxin (10 nM; all N=8). c, ouabain sensitive Rb uptake as a function of MBG and ouabain concentration (N=4 at each concentration for both MBG and ouabain; data expressed as fraction of control). d, relative proline incorporation in the supernatant and matrix, both will and without collagenase digestion (total). Each group (controls and different doses of MBG) contains N=7 replicants. The difference between the total and after collagenase digestion is reported as collagen. The matrix is the sample that was obtained after removing supernatant and scraping the culture dish. e, mRNA for collagen 1 in MBG-treated (10 nM; N=8) or control (N=8) fibroblasts. f, procollagen stability after cycloheximide treatment. Time 0 is 1 hour after incubation with cycloheximide (20 μg/mL). […] Least-square regression line fit to control (CTL) and MBG data. Bars on quantitative graphs represent the mean.+−.SEM. *P<0.05 and **P<0.01 vs control.
(§4) The PP2, herbimycin AG1478, and N-acetyl cysteine were administered from 2 hours before the addition of MBG and continued throughout the 24 hours of MBG incubation (total of 26 hours). Each bar represents the mean.+−.SEM of n=8 experiments. b, effects of PP2 (1 μmol/L) and N-acetyle cysteine (2.5 mmol/L) on MBG (10 nM)-stimulated proline incorporation into collagen. Again, the PP2 an N-acetyl cysteine were added 2 hours before exposure to MBG. Each bar represents the mean.+−.SEM of N=5 experiments. c, effects of MBG 10 nM on procollagen content in SYF and SYF+ cells. Representative Western blots are shown above quantitative data. SYF blots loaded with 15 μg of protein and SYF+blots loaded with 10 μg of protein. Each bar represents the mean.+−SEM of N-6 determinations In each group. **[…] vs. control.
(§5) The effect of 24 hours of MBG (1 and 10 nM) on TGF-β, Smad 2/3, Smad 4, and pSmad 2/3 expression determined by Western blot. b and c, effects of 24 hours of MBG (10 nM), TGFβ(5 ng/mL), and the TGF-β receptor antagonist SB431542 ([…] on procollagen-1 expression (Western blot) and radiolabeled proline incorporation, respectively also were carried out. SB431542 was added 2 hours before exposure to either TGFβ or MBG (total of 26-hour exposure). Each bar represents the mean.+−.SEM of 6 to 8 determinations. *P<0.05, **P<0.01 vs. control.

[3] = tested on: isolated cardiac fibroblasts; assay: Radiolabeled proline incorporation into collagen (collagen synthesis) in cardiac fibroblasts; assay type: cell-based, rat; conditions: 10^−9 and 10^−8 M
Procedure: as §2
Collagen synthesis rates were determined by the method of Nishida et al. with modification.
To further examine the molecular basis of this cardiac fibrosis, isolated cardiac fibroblasts were subjected to increase doses of MBG (10^−10, 10^−9, and 10^−8 M). […] Using collagenase digestion, we observed that the vast majority of the proline incorporation was into collagen. Using standardized RT-PCR, we observed a doubling of mRNA for collagen-1 at 24 hours in response to 10 nM of MBG.
as §3
as §4, with “The effects of PP2 (1 μmol/L), herbimycin (1 μmol/L), AG1478 (250 nM), and N-acetyl cysteine (2.5 mmol/L) on MBG (10 nM) stimulation of procollagen expression also were found. The” for “The”
as §5

SMILES: C[C@]12CC[C@H](O)C[C@@]1(O)CC[C@@H]1[C@@H]2CC[C@]2(C)[C@@H](c3ccc(=O)oc3)C[C@H]3O[C@]132 [MBG, marinobufagenin]
- Cardiac fibrosis [1]: caused cardiac fibrosis
- Collagen-1 and a smooth muscle actin staining (immunohistochemistry) ([1]; heart tissue): marked increases
- Expression of a smooth muscle actin relative to sham-operated controls (Western blot) ([1]; heart tissue): 2 to 2.5 times
- Expression of procollagin-1 relative to sham-operated controls (Western blot) ([1]; heart tissue): 2 to 2.5 times
- Increase of procollagen content (Western blot) ([2]; 10^−8 M): about 2 fold
- Increase of procollagen content (Western blot) ([2]; 10^−9 M): about 2 fold
- Proline incorporation into total protein, matrix and supernatant [3]: significant increases
